Laboratory results published in US20250186437A1, “CARBOLINE COMPOUNDS AND USE THEREOF” (PTC Therapeutics, Inc., priority 2021, published 2025).

Each molecule was assayed on MOLM-13 cells (assay: MOLM-13 Cell Proliferation Assay (indicator of DHODH inhibition)). Conditions: Homo sapiens, 72 Hours of culture, CellTiter-Glo, no uridine.
Assay type: cell-based
How it was run: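 Low-passage MOLM-13 cells (10^4/well) in RPMI 1640 + 10% FBS exposed to compound (0.5% DMSO final) for 72 h at 37 °C, 5% CO2. Viability read by CellTiter-Glo luminescence; growth reflects de novo pyrimidine synthesis dependent on DHODH.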

Row | Compound | IC50
1 | Cc1ccc([C@H]2c3[nH]c4ccc(Cl)cc4c3CCN2c2ncnc(C(F)(F)F)n2)c(F)c1F [Compound 461, (1S)-6-chloro-1-(2,3-difluoro-4-methylphenyl)-2-[4-(trifluoromethyl)-1,3,5-triazin-2-yl]-2,3,4,9-tetrahydro-1H-pyrido[3,4-b]indole] | 0.8 nM
2 | Cc1ccc([C@H]2c3[nH]c4ccc(Cl)cc4c3CCN2c2ncc(Br)cn2)c(F)c1F [Compound 463, (1S)-2-(5-bromopyrimidin-2-yl)-6-chloro-1-(2,3-difluoro-4-methylphenyl)-2,3,4,9-tetrahydro-1H-pyrido[3,4-b]indole] | 1.1 nM
3 | Cc1nc(N2CCc3c([nH]c4ccc(Cl)cc34)[C@@H]2c2ccc(C)c(F)c2F)nc(C(F)(F)F)n1 [Compound 464, (1S)-6-chloro-1-(2,3-difluoro-4-methylphenyl)-2-[4-methyl-6-(trifluoromethyl)-1,3,5-triazin-2-yl]-2,3,4,9-tetrahydro-1H-pyrido[3,4-b]indole] | 0.2 nM
4 | Cc1nc(N2CCc3c([nH]c4ccc(Cl)cc34)[C@@H]2c2ccc(N3CCOCC3)nc2)nc(C(F)(F)F)n1 [Compound 465, (1S)-6-chloro-2-[4-methyl-6-(trifluoromethyl)-1,3,5-triazin-2-yl]-1-[6-(morpholin-4-yl)pyridin-3-yl]-2,3,4,9-tetrahydro-1H-pyrido[3,4-b]indole] | 0.6 nM
5 | Cc1nc(N2CCc3c([nH]c4ccc(Cl)cc34)[C@@H]2c2cnc(N3CCOCC3)nc2)nc(C(F)(F)F)n1 [Compound 466, (1S)-6-chloro-2-[4-methyl-6-(trifluoromethyl)-1,3,5-triazin-2-yl]-1-[2-(morpholin-4-yl)pyrimidin-5-yl]-2,3,4,9-tetrahydro-1H-pyrido[3,4-b]indole] | 0.9 nM
6 | Cc1ccc([C@H]2c3[nH]c4ccc(Cl)cc4c3CCN2c2nc(C)nc(C(F)(F)F)n2)cc1 [Compound 467, (1S)-6-chloro-1-(4-methylphenyl)-2-[4-methyl-6-(trifluoromethyl)-1,3,5-triazin-2-yl]-2,3,4,9-tetrahydro-1H-pyrido[3,4-b]indole] | 0.7 nM
7 | Cc1nc(C)nc(N2CCc3c([nH]c4ccc(Cl)cc34)C2c2ccc(Cl)cc2F)n1 (centres unmarked) [Compound 468, 6-chloro-1-(4-chloro-2-fluorophenyl)-2-(4,6-dimethyl-1,3,5-triazin-2-yl)-2,3,4,9-tetrahydro-1H-pyrido[3,4-b]indole] | 5.2 nM
8 | Cc1ccc(C2c3[nH]c4ccc(Cl)cc4c3CCN2c2nccc(-c3ccccc3)n2)c(F)c1F (centres unmarked) [Compound 469, 6-chloro-1-(2,3-difluoro-4-methylphenyl)-2-(4-phenylpyrimidin-2-yl)-2,3,4,9-tetrahydro-1H-pyrido[3,4-b]indole] | 4 nM
9 | Clc1ccc2[nH]c3c(c2c1)CCN(c1ncc(Br)cn1)[C@H]3c1cnc(N2CCOCC2)nc1 [Compound 470, (1S)-2-(5-bromopyrimidin-2-yl)-6-chloro-1-[2-(morpholin-4-yl)pyrimidin-5-yl]-2,3,4,9-tetrahydro-1H-pyrido[3,4-b]indole] | 3.1 nM
10 | Cc1ccc([C@H]2c3[nH]c4ccc(Cl)cc4c3CCN2c2ncc(-c3ccccc3)cn2)c(F)c1F [Compound 471, (1S)-6-chloro-1-(2,3-difluoro-4-methylphenyl)-2-(5-phenylpyrimidin-2-yl)-2,3,4,9-tetrahydro-1H-pyrido[3,4-b]indole] | 2.5 nM
11 | Clc1ccc2[nH]c3c(c2c1)CCN(c1ncc(-c2ccccc2)cn1)[C@H]3c1cnc(N2CCOCC2)nc1 [Compound 472, (1S)-6-chloro-1-[2-(morpholin-4-yl)pyrimidin-5-yl]-2-(5-phenylpyrimidin-2-yl)-2,3,4,9-tetrahydro-1H-pyrido[3,4-b]indole] | 4.1 nM
12 | FC(F)(F)c1ccnc(N2CCc3c([nH]c4ccc(Cl)cc34)[C@@H]2c2ccc(N3CCOCC3)nc2)n1 [Compound 473, (1S)-6-chloro-1-[6-(morpholin-4-yl)pyridin-3-yl]-2-[4-(trifluoromethyl)pyrimidin-2-yl]-2,3,4,9-tetrahydro-1H-pyrido[3,4-b]indole] | 1 nM
13 | CSc1nc(N2CCc3c([nH]c4ccc(Cl)cc34)[C@@H]2c2cnc(N3CCN(C)CC3)nc2)nc(C(F)(F)F)n1 [Compound 474, (1S)-6-chloro-1-[2-(4-methylpiperazin-1-yl)pyrimidin-5-yl]-2-[4-(methylsulfanyl)-6-(trifluoromethyl)-1,3,5-triazin-2-yl]-2,3,4,9-tetrahydro-1H-pyrido[3,4-b]indole] | 2.1 nM
14 | Clc1ccc2[nH]c3c(c2c1)CCN(c1nccc(-c2ccccc2)n1)C3c1cnc(N2CCOCC2)nc1 (centres unmarked) [Compound 475, 6-chloro-1-[2-(morpholin-4-yl)pyrimidin-5-yl]-2-(4-phenylpyrimidin-2-yl)-2,3,4,9-tetrahydro-1H-pyrido[3,4-b]indole] | 116 nM
15 | Cc1ccc([C@H]2c3[nH]c4ccc(Cl)cc4c3CCN2c2nc(F)nc(N3CCN(C)CC3)n2)c(F)c1F [Compound 476, (1S)-6-chloro-1-(2,3-difluoro-4-methylphenyl)-2-[4-fluoro-6-(4-methylpiperazin-1-yl)-1,3,5-triazin-2-yl]-2,3,4,9-tetrahydro-1H-pyrido[3,4-b]indole] | 7.6 nM
16 | Cc1ccc([C@H]2c3[nH]c4ccc(Cl)cc4c3CCN2c2nc(N3CCN(C)CC3)nc(C(F)(F)F)n2)c(F)c1F [Compound 477, (1S)-6-chloro-1-(2,3-difluoro-4-methylphenyl)-2-[4-(4-methylpiperazin-1-yl)-6-(trifluoromethyl)-1,3,5-triazin-2-yl]-2,3,4,9-tetrahydro-1H-pyrido[3,4-b]indole] | 1.1 nM
17 | CN1CCN(c2nc(N3CCc4c([nH]c5ccc(Cl)cc45)[C@@H]3c3cnc(N4CCOCC4)nc3)nc(C(F)(F)F)n2)CC1 [Compound 478, (1S)-6-chloro-2-[4-(4-methylpiperazin-1-yl)-6-(trifluoromethyl)-1,3,5-triazin-2-yl]-1-[2-(morpholin-4-yl)pyrimidin-5-yl]-2,3,4,9-tetrahydro-1H-pyrido[3,4-b]indole] | 9.5 nM
18 | CN1CCN(c2ncc([C@H]3c4[nH]c5ccc(Cl)cc5c4CCN3c3nc(N4CCN(C)CC4)nc(C(F)(F)F)n3)cn2)CC1 [Compound 479, (1S)-6-chloro-1-[2-(4-methylpiperazin-1-yl)pyrimidin-5-yl]-2-[4-(4-methylpiperazin-1-yl)-6-(trifluoromethyl)-1,3,5-triazin-2-yl]-2,3,4,9-tetrahydro-1H-pyrido[3,4-b]indole] | 66.1 nM
19 | CN1CCN(c2ccc([C@H]3c4[nH]c5ccc(Cl)cc5c4CCN3c3nccc(C(F)(F)F)n3)cn2)CC1 [Compound 480, (1S)-6-chloro-1-[6-(4-methylpiperazin-1-yl)pyridin-3-yl]-2-[4-(trifluoromethyl)pyrimidin-2-yl]-2,3,4,9-tetrahydro-1H-pyrido[3,4-b]indole] | 3.2 nM
20 | CN1CCN(c2ccc([C@H]3c4[nH]c5ccc(Cl)cc5c4CCN3c3nc(C(F)(F)F)cc(C(F)(F)F)n3)cn2)CC1 [Compound 481, (1S)-2-[4,6-bis(trifluoromethyl)pyrimidin-2-yl]-6-chloro-1-[6-(4-methylpiperazin-1-yl)pyridin-3-yl]-2,3,4,9-tetrahydro-1H-pyrido[3,4-b]indole] | 0.6 nM
